Source: PubChem BioAssay (NCI)
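Dose response: 5 concentrations. Exposure: 48 h. Format: 96-well plates. Endpoint: linear interpolation; highest concentration if not reached. GI50 marks 50% less growth. Definition used: TGI = concentration required for complete inhibition of growth.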

Tests used:
Experiment in all cases: growth of human tumour cells (NCI), 48 h
DU-145 prostate = tested on: DU-145 prostate
EKVX NSCLC = tested on: EKVX NSCLC
NCI-H23 lung = tested on: NCI-H23 lung
SF-539 CNS = tested on: SF-539 CNS
SK-MEL-5 melanoma = tested on: SK-MEL-5 melanoma
SNB-19 CNS = tested on: SNB-19 CNS
SNB-75 CNS = tested on: SNB-75 CNS
RPMI-8226 leukemia = tested on: RPMI-8226 leukemia

CC1(C)CC[C@]2(CO)CC[C@]3(C)C(=CC[C@@H]4[C@@]5(C)CCNCC(C)(C)[C@@H]5CC[C@]43C)[C@@H]2C1
GI50 (DU-145 prostate): 6.93 µM
TGI (DU-145 prostate): 21 µM
GI50 (EKVX NSCLC): 9.55 µM
TGI (EKVX NSCLC): 23.2 µM
GI50 (NCI-H23 lung): 12.5 µM
TGI (NCI-H23 lung): 26.9 µM
GI50 (SF-539 CNS): 10.6 µM
TGI (SF-539 CNS): 23.1 µM
GI50 (SK-MEL-5 melanoma): 1.86 µM
TGI (SK-MEL-5 melanoma): 3.64 µM
GI50 (SNB-19 CNS): 12.8 µM
TGI (SNB-19 CNS): 26.8 µM
GI50 (SNB-75 CNS): 10.1 µM
TGI (SNB-75 CNS): 23 µM

Cc1cn2c(/C=C3\C(=O)N(C)c4ccc(Cl)cc43)c(C)nc2s1
GI50 (EKVX NSCLC): 9.9 µM
TGI (EKVX NSCLC): > 100 µM
GI50 (NCI-H23 lung): 3.71 µM
TGI (NCI-H23 lung): 27.3 µM
GI50 (RPMI-8226 leukemia): 2.84 µM
TGI (RPMI-8226 leukemia): 9.4 µM
GI50 (SF-539 CNS): 2.46 µM
TGI (SF-539 CNS): 6.93 µM
GI50 (SK-MEL-5 melanoma): 1.34 µM
TGI (SK-MEL-5 melanoma): 19.5 µM
GI50 (SNB-19 CNS): 4.25 µM
TGI (SNB-19 CNS): 92.9 µM
GI50 (SNB-75 CNS): 2.52 µM
TGI (SNB-75 CNS): 7.32 µM

O=C(O)c1[nH]c2c([N+](=O)[O-])cc([N+](=O)[O-])cc2c1C(=O)O
TGI (DU-145 prostate): > 100 µM
TGI (EKVX NSCLC): > 100 µM
TGI (NCI-H23 lung): > 100 µM
TGI (SF-539 CNS): > 100 µM
TGI (SK-MEL-5 melanoma): > 100 µM
TGI (SNB-19 CNS): > 100 µM
TGI (SNB-75 CNS): > 100 µM

CCOC(=O)c1cc2c(n1Cc1ccccc1OC)-c1oncc1CCC2
GI50 (DU-145 prostate): 5.27 µM
TGI (DU-145 prostate): > 100 µM
GI50 (NCI-H23 lung): 8.52 µM
TGI (NCI-H23 lung): > 100 µM
GI50 (RPMI-8226 leukemia): 4.11 µM
TGI (RPMI-8226 leukemia): > 100 µM
GI50 (SF-539 CNS): 2.48 µM
TGI (SF-539 CNS): 8.57 µM
GI50 (SK-MEL-5 melanoma): 2.61 µM
TGI (SK-MEL-5 melanoma): > 100 µM
GI50 (SNB-19 CNS): 64.7 µM
TGI (SNB-19 CNS): > 100 µM

O=C(Nc1ccc(Cl)cc1)N1CCN(c2ccc3nncn3n2)CC1
GI50 (DU-145 prostate): 49.8 µM
TGI (DU-145 prostate): > 100 µM
GI50 (NCI-H23 lung): 42.3 µM
TGI (NCI-H23 lung): > 100 µM
GI50 (RPMI-8226 leukemia): 29.7 µM
TGI (RPMI-8226 leukemia): > 100 µM
GI50 (SF-539 CNS): > 100 µM
TGI (SF-539 CNS): > 100 µM
GI50 (SK-MEL-5 melanoma): 37.3 µM
TGI (SK-MEL-5 melanoma): > 100 µM
GI50 (SNB-19 CNS): > 100 µM
TGI (SNB-19 CNS): > 100 µM
GI50 (SNB-75 CNS): > 100 µM
TGI (SNB-75 CNS): > 100 µM

COc1ccc(NC(=O)c2cccc(C3CCc4c(cc(OC)c(OC)c4OC)O3)c2)cc1 (stereo not drawn)
GI50 (DU-145 prostate): 2.93 µM
TGI (DU-145 prostate): > 100 µM
GI50 (EKVX NSCLC): 3.28 µM
TGI (EKVX NSCLC): > 100 µM
GI50 (NCI-H23 lung): 4.56 µM
TGI (NCI-H23 lung): > 100 µM
GI50 (RPMI-8226 leukemia): 1.36 µM
TGI (RPMI-8226 leukemia): 7.93 µM
GI50 (SF-539 CNS): 2.52 µM
TGI (SF-539 CNS): 7.01 µM
GI50 (SK-MEL-5 melanoma): 1.67 µM
TGI (SK-MEL-5 melanoma): 3.89 µM
GI50 (SNB-19 CNS): 4.16 µM
TGI (SNB-19 CNS): > 100 µM

CC(=N\O)/C(C)=N/O.CC(=N\O)/C(C)=N/O.[Fe].[NH2-].c1c[nH]cn1
GI50 (DU-145 prostate): > 100 µM
TGI (DU-145 prostate): > 100 µM
GI50 (EKVX NSCLC): > 100 µM
TGI (EKVX NSCLC): > 100 µM
GI50 (RPMI-8226 leukemia): > 100 µM
TGI (RPMI-8226 leukemia): > 100 µM
GI50 (SF-539 CNS): > 100 µM
TGI (SF-539 CNS): > 100 µM
GI50 (SK-MEL-5 melanoma): > 100 µM
TGI (SK-MEL-5 melanoma): > 100 µM
GI50 (SNB-19 CNS): > 100 µM
TGI (SNB-19 CNS): > 100 µM
GI50 (SNB-75 CNS): > 100 µM
TGI (SNB-75 CNS): > 100 µM

O=C(c1ccc(Nc2nccc(NCCCCNc3ccnc4cc(Cl)ccc34)n2)cc1)N1CCCCC1
GI50 (DU-145 prostate): 3.53 µM
TGI (DU-145 prostate): 14.3 µM
GI50 (EKVX NSCLC): 3.86 µM
TGI (EKVX NSCLC): 19.8 µM
GI50 (NCI-H23 lung): 2.95 µM
TGI (NCI-H23 lung): 15.7 µM
GI50 (RPMI-8226 leukemia): 0.999 µM
TGI (RPMI-8226 leukemia): 4.44 µM
GI50 (SK-MEL-5 melanoma): 1.61 µM
TGI (SK-MEL-5 melanoma): 2.98 µM
GI50 (SNB-19 CNS): 3.89 µM
TGI (SNB-19 CNS): 21.1 µM
GI50 (SNB-75 CNS): 1.58 µM
TGI (SNB-75 CNS): 3.35 µM
